# The supplement of paper PMC10307832
# Columns and labels:
# Assay in all cases: relative viability (nuclei count vs DMSO), 5 days (fraction); higher = more cells survive
# LC-2-ad = test system: LC-2-ad
# Procedure, shortened: (§1)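 Relative viability divides the nuclei count in treated wells by that in vehicle wells. Lung cancer cell lines were seeded in 1536-well plates, dosed by pin tool the next day, and fixed and stained after 5 days in one step with final 0.05% Triton X-100, 1% formaldehyde and 1 ug/ml Hoechst. Dosing was a single drug or a fixed anchor-drug dose plus five library-drug doses (not always all listed) in √10 steps, and values are medians of duplicate plates imaged at 4×.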
# COR-L 105 = test system: COR-L 105
# Procedure, shortened: as §1
# NCI-H3122 = test system: NCI-H3122
# Procedure, shortened: as §1
# NCI-H661 = test system: NCI-H661
# Procedure, shortened: as §1
# CAL-12T = test system: CAL-12T
# Procedure, shortened: as §1
# LU99A = test system: LU99A
# Procedure, shortened: as §1
# NCI-H1734 = test system: NCI-H1734
# Procedure, shortened: as §1
# PC-14 = test system: PC-14
# Procedure, shortened: as §1
# NCI-H838 = test system: NCI-H838
# Procedure, shortened: as §1
# NCI-H2228 = test system: NCI-H2228
# Procedure, shortened: as §1
# HARA = test system: HARA
# Procedure, shortened: as §1
# SK-LU-1 = test system: SK-LU-1
# Procedure, shortened: as §1
# NCI-H1975 = test system: NCI-H1975
# Procedure, shortened: as §1
# PC-3 [JPC-3] = test system: PC-3 [JPC-3]
# Procedure, shortened: as §1
# HCC-366 = test system: HCC-366
# Procedure, shortened: as §1
# NCI-H647 = test system: NCI-H647
# Procedure, shortened: as §1
# H3255 = test system: H3255
# Procedure, shortened: as §1
# NCI-H520 = test system: NCI-H520
# Procedure, shortened: as §1
# NCI-H1666 = test system: NCI-H1666
# Procedure, shortened: as §1
# NCI-H1993 = test system: NCI-H1993
# Procedure, shortened: as §1
# HCC-15 = test system: HCC-15
# Procedure, shortened: as §1
smiles,measurement,setting,value
O=c1[nH]c2ccccc2n1C1CCN(CCCC(c2ccc(F)cc2)c2ccc(F)cc2)CC1 [Pimozide] + CC(C)C[C@H](NC(=O)[C@H](Cc1ccccc1)NC(=O)c1cnccn1)B(O)O [Bortezomib] (partner 0.002 µM),relative viability,LC-2-ad; first compound 0.08 µM,1.09
same,relative viability,LC-2-ad; first compound 0.253 µM,0.927
same,relative viability,LC-2-ad; first compound 0.8 µM,0.935
same,relative viability,LC-2-ad; first compound 2.53 µM,1.03
same,relative viability,LC-2-ad; first compound 8 µM,0.996
same,relative viability,COR-L 105; first compound 0.253 µM,0.749
same,relative viability,COR-L 105; first compound 0.8 µM,0.659
same,relative viability,COR-L 105; first compound 2.53 µM,0.672
same,relative viability,COR-L 105; first compound 8 µM,0.479
same,relative viability,NCI-H3122; first compound 0.08 µM,0.983
same,relative viability,NCI-H3122; first compound 0.253 µM,0.959
same,relative viability,NCI-H3122; first compound 0.8 µM,1.01
same,relative viability,NCI-H3122; first compound 2.53 µM,0.981
same,relative viability,NCI-H3122; first compound 8 µM,1.01
same,relative viability,NCI-H661; first compound 0.08 µM,0.672
same,relative viability,NCI-H661; first compound 0.253 µM,0.699
same,relative viability,NCI-H661; first compound 0.8 µM,0.719
same,relative viability,NCI-H661; first compound 2.53 µM,0.725
same,relative viability,NCI-H661; first compound 8 µM,0.852
same,relative viability,CAL-12T; first compound 0.08 µM,0.875
same,relative viability,CAL-12T; first compound 0.253 µM,0.979
same,relative viability,CAL-12T; first compound 0.8 µM,0.821
same,relative viability,CAL-12T; first compound 2.53 µM,0.87
same,relative viability,CAL-12T; first compound 8 µM,0.828
same,relative viability,LU99A; first compound 0.08 µM,1.17
same,relative viability,LU99A; first compound 0.253 µM,0.978
same,relative viability,LU99A; first compound 0.8 µM,1.09
same,relative viability,LU99A; first compound 2.53 µM,1.09
same,relative viability,LU99A; first compound 8 µM,0.929
same,relative viability,NCI-H1734; first compound 0.08 µM,0.903
same,relative viability,NCI-H1734; first compound 0.253 µM,0.958
same,relative viability,NCI-H1734; first compound 0.8 µM,0.916
same,relative viability,NCI-H1734; first compound 2.53 µM,0.993
same,relative viability,NCI-H1734; first compound 8 µM,0.844
same,relative viability,PC-14; first compound 0.08 µM,0.855
same,relative viability,PC-14; first compound 0.253 µM,0.812
same,relative viability,PC-14; first compound 0.8 µM,0.844
same,relative viability,PC-14; first compound 2.53 µM,0.912
same,relative viability,PC-14; first compound 8 µM,0.81
same,relative viability,NCI-H838; first compound 0.08 µM,0.786
same,relative viability,NCI-H838; first compound 0.253 µM,0.737
same,relative viability,NCI-H838; first compound 0.8 µM,0.786
same,relative viability,NCI-H838; first compound 2.53 µM,0.745
same,relative viability,NCI-H838; first compound 8 µM,0.684
same,relative viability,NCI-H2228; first compound 0.08 µM,1.11
same,relative viability,NCI-H2228; first compound 0.253 µM,0.858
same,relative viability,NCI-H2228; first compound 0.8 µM,0.904
same,relative viability,NCI-H2228; first compound 2.53 µM,0.728
same,relative viability,NCI-H2228; first compound 8 µM,0.559
same,relative viability,HARA; first compound 0.08 µM,0.857
same,relative viability,HARA; first compound 0.253 µM,1.16
same,relative viability,HARA; first compound 0.8 µM,0.937
same,relative viability,HARA; first compound 2.53 µM,1.17
same,relative viability,HARA; first compound 8 µM,1.06
same,relative viability,SK-LU-1; first compound 0.08 µM,1.09
same,relative viability,SK-LU-1; first compound 0.253 µM,1.21
same,relative viability,SK-LU-1; first compound 0.8 µM,0.741
same,relative viability,SK-LU-1; first compound 2.53 µM,0.899
same,relative viability,SK-LU-1; first compound 8 µM,1.11
same,relative viability,NCI-H1975; first compound 0.08 µM,0.338
same,relative viability,NCI-H1975; first compound 0.253 µM,0.39
same,relative viability,NCI-H1975; first compound 0.8 µM,0.398
same,relative viability,NCI-H1975; first compound 2.53 µM,0.337
same,relative viability,NCI-H1975; first compound 8 µM,0.355
same,relative viability,PC-3 [JPC-3]; first compound 0.253 µM,0.803
same,relative viability,PC-3 [JPC-3]; first compound 0.8 µM,0.726
same,relative viability,PC-3 [JPC-3]; first compound 2.53 µM,0.884
same,relative viability,PC-3 [JPC-3]; first compound 8 µM,0.667
same,relative viability,HCC-366; first compound 0.08 µM,1.01
same,relative viability,HCC-366; first compound 0.253 µM,0.999
same,relative viability,HCC-366; first compound 0.8 µM,0.985
same,relative viability,HCC-366; first compound 2.53 µM,1.03
same,relative viability,HCC-366; first compound 8 µM,1.01
same,relative viability,NCI-H647; first compound 0.08 µM,1.08
same,relative viability,NCI-H647; first compound 0.253 µM,0.855
same,relative viability,NCI-H647; first compound 0.8 µM,0.851
same,relative viability,NCI-H647; first compound 2.53 µM,0.944
same,relative viability,NCI-H647; first compound 8 µM,0.529
same,relative viability,H3255; first compound 0.253 µM,0.802
same,relative viability,H3255; first compound 0.8 µM,0.732
same,relative viability,H3255; first compound 2.53 µM,0.759
same,relative viability,H3255; first compound 8 µM,0.732
same,relative viability,NCI-H520; first compound 0.08 µM,0.386
same,relative viability,NCI-H520; first compound 0.253 µM,0.538
same,relative viability,NCI-H520; first compound 0.8 µM,0.556
same,relative viability,NCI-H520; first compound 2.53 µM,0.437
same,relative viability,NCI-H520; first compound 8 µM,0.649
same,relative viability,NCI-H1666; first compound 0.08 µM,0.823
same,relative viability,NCI-H1666; first compound 0.253 µM,0.744
same,relative viability,NCI-H1666; first compound 0.8 µM,0.761
same,relative viability,NCI-H1666; first compound 2.53 µM,0.7
same,relative viability,NCI-H1666; first compound 8 µM,0.626
same,relative viability,NCI-H1993; first compound 0.08 µM,0.89
same,relative viability,NCI-H1993; first compound 0.253 µM,1.03
same,relative viability,NCI-H1993; first compound 0.8 µM,0.986
same,relative viability,NCI-H1993; first compound 2.53 µM,1.07
same,relative viability,NCI-H1993; first compound 8 µM,1.01
same,relative viability,HCC-15; first compound 0.08 µM,1.12
same,relative viability,HCC-15; first compound 0.253 µM,0.994
same,relative viability,HCC-15; first compound 0.8 µM,0.848
same,relative viability,HCC-15; first compound 2.53 µM,0.963
same,relative viability,HCC-15; first compound 8 µM,0.908
